Test results as given in patent US20040175763A1, “Crohn's disease antibody-binding peptide and method of examining crohn's disease” (priority 2001, published 2004).

Experiments:
[1] = test system: Crohn's disease antibody; test: Reaction inhibition test with one amino acid-substituted MAP peptides on CDP3 MAP plate (Example 6(2)); format: binding, human; details: inhibitor MAP peptide 100 μg/mL
Protocol: Referring to the amino acid sequence of CDP peptide, in order to determine the sequence necessary for the specific reactivity to Crohn's disease antibody, the following reaction inhibition test was performed using each of the one amino acid-substituted MAP peptides prepared as above as the reaction inhibitor.
More particularly, using the MAP plate prepared by immobilizing the MAP peptide of CDP3 (see Example 2(1)) as the antigen plate, the test was performed by 3 reaction steps. In the primary reaction, the Crohn's disease patient serum was diluted 100-fold with a sample diluent containing the one amino acid-substituted MAP peptide in a concentration of 100 μg/mL (0.1 M Tris-buffer containing 0.5 M sodium chloride, 1.5% casein, 2% normal goat serum and 0.2% Tween 20) and reacted at 25° C. for one hour. In the secondary reaction, 100 μL/well of the primary reaction mixture was added to the plate and reacted at 25° C. for one hour, after which the plate was washed 3 times. In the tertiary reaction, 100 μL/well of HRP-labeled anti-human IgG (Fc)-specific antibody diluted 5,000-fold in an enzyme-labeled antibody diluent (Tris buffer containing 0.14 M sodium chloride, 0.5% BAS, 5% normal goat serum and 0.05% Tween 20) was added to the plate, and reacted at 25° C. for 1 hour, followed by 3 rounds of washing. Detection was performed as in Example 2(1) to measure the reaction-inhibiting activity of the one amino acid-substituted MAP peptide.

[2] = test system: Crohn's disease patient serum antibody; test: Phage ELISA of CD-binding peptide display phage clones with serum samples; parameters: species or system human; details: 20 Crohn's disease, 20 ulcerative colitis, 20 healthy volunteer serum samples
Protocol: Using the monoclonal CD-binding peptide display phage obtained as above, phage ELISA was carried out with the same healthy volunteer serum pool and Crohn's disease patient serum pool as used in the above biopanning (cf. (i)).
In the ELISA, an anti-phage antibody (Pharmacia) was immobilized on a 96-well microtiter plate in the first place. Specifically, this immobilization was carried out by adding an anti-phage antibody (Pharmacia) solution prepared in a 1 μg/ml concentration with (D)-PBS, to the plate, 100 μl per well. The plate was left sitting at 4° C. overnight and then washed, and after addition of 300 μl of blocking solution ((D)-PBS containing 1% BSA and 5% sorbitol), further left sitting at 4° C. overnight.
The primary reaction was carried out as follows. Thus, 10 μl of the phage solution in (ii) was added to 90 μl of phage ELISA buffer ((D)-PBS containing 1% BSA, 0.05% Tween 20 and 10% normal goat serum), the mixture was added to each well coated with said anti-phage antibody, and the reaction was conducted at 37° C. for 1 hour. After completion of the primary reaction, the plate was washed 4 times and the secondary reaction was carried out. The secondary reaction was performed by adding the mixture containing 1 μl of serum (healthy volunteer serum or Crohn's disease patient serum) and 100 μl of phage ELISA buffer, to each well, and allowing the reaction to proceed at 37° C. for 1 hour. After completion of the secondary reaction, the plate was washed 4 times and the tertiary reaction was carried out. The tertiary reaction was conducted by adding HRP (horseradish peroxidase)-labeled anti-human IgG (Fc)-specific antibody, diluted 40,000-fold in phage ELISA buffer (20 ng/ml) in advance, to the plate, 100 μl per well, and allowing the reaction to proceed at 37° C. for one hour. After completion of the tertiary reaction, the plate was washed and a color development reaction was carried out. The color development was conducted by adding TMB (3,3′,5,5′-tetramethylbenzidine) solution to the plate, allowing the reaction to proceed at room temperature for 10 minutes, and stopping the reaction with a stopper (1N sulfuric acid). The plate after reaction stopping was measured for absorbance (OD 450 nm) with a plate reader to evaluate the reactivity with the serum antibody.
For the 5 clones thus selected, the reactivity (ELISA) with the respective serum samples (Crohn's disease patient serum, ulcerative colitis patient serum, and healthy volunteer serum) was evaluated.

[3] = test system: Crohn's disease antibody (serum IgG); test: ELISA using each branched multiple antigenic peptide (MAP peptide) as the antigen; format: binding, human; details: for Positive rate Ulcerative colitis patients: 20 ulcerative colitis patient sera; for Positive rate Ulcerative colitis patients / Positive rate Healthy volunteers: cut-off mean OD+5SD of 48 healthy volunteer sera; for reaction with ulcerative colitis patient sera or healthy volunteer sera: 20 ulcerative colitis, 48 healthy volunteer serum samples; for Positive rate Healthy volunteers: 48 healthy volunteer sera
Protocol: Using each MAP peptide (the MAP peptides of CDP-1, CDP-2, CDP-3, and CDP-4; see FIG. 2) obtained in Example 1 as the antigen peptide, the reactivity to each serum sample (Crohn's disease patient serum, ulcerative colitis patient serum, and healthy volunteer serum) was evaluated by ELISA.
In the first place, each MAP peptide was immobilized on a 96-well microtiter plate. Thus, this immobilization was carried out in accordance with the protocol which comprises dissolving each MAP peptide in bicarbonate buffer (50 mM, pH 9.6) at a concentration of 1 μg/ml to prepare a MAP solution, adding the solution to the antigen plate, 100 μl per well, then leaving the plate sitting at 4° C. overnight, washing it, adding 300 μl of casein solution ((D)-PBS containing 0.1% casein and 1% Triton X-100), and leaving the plate sitting again at 4° C. overnight.
(i) Using the MAP plates carrying the respective MAP peptides immobilized, the reactivity of each MAP peptide to 20 Crohn's disease patient serum samples, 20 ulcerative colitis patient serum samples and 48 healthy volunteer serum samples was verified by ELISA.
More particularly, a primary reaction was carried out by adding mixture containing 1 μl of the serum antibody and 100 μl of casein solution to each well of the MAP plate, and allowing the reaction to proceed at 37° C. for one hour. After completion of the primary reaction, the plate was washed 4 times and a 20,000-fold dilution of HRP-labeled anti-human IgG(Fc)-specific antibody in casein solution was added into the wells and incubated at 37° C. for one hour to carry out a secondary reaction. After completion of the secondary reaction, the plate was washed 4 times and a color development reaction was carried out. For detection, 100 μl of TMB solution was added to the plate and reacted at room temperature for 10 minutes, at the end of which time the reaction was stopped by adding 100 μl of TMB stop solution (1N sulfuric acid). The absorbance at OD 450 nm was measured with a plate reader to investigate the reactivity to each MAP plate for each serum. […] It can also be seen in FIG. 3 that the reactivity of each MAP peptide to Crohn's disease patient serum varied among different kinds of MAP peptides without consistency.
(ii) Then, using a large number of serum samples (96 Crohn's disease patient serum samples, 20 ulcerative colitis patient serum samples, and 48 healthy volunteer serum samples), the reactivity of the above MAP peptides (the MAP peptides of CDP-1, CDP-2, CDP-3, and CDP-4) was investigated by the same method as in (i) to evaluate the specificity of the respective peptides to Crohn's disease patient sera.

Substance: A A G E L R Q S D G Q Y Q M (AAGELRQSDGQYQM) [CDP3-2]
- reaction-inhibiting activity, Patient serum sample No. 2 [1]: +++ (+++: reaction-inhibiting activity = 70%)
- reaction-inhibiting activity, Patient serum sample No. 7 [1]: +++ (+++: reaction-inhibiting activity = 70%)
- reaction-inhibiting activity, Patient serum sample No. 8 [1]: +++ (+++: reaction-inhibiting activity = 70%)

Substance: A E A E L R Q S D G Q Y Q M (AEAELRQSDGQYQM) [CDP3-3]
- reaction-inhibiting activity, Patient serum sample No. 2 [1]: +++ (+++: reaction-inhibiting activity = 70%)
- reaction-inhibiting activity, Patient serum sample No. 7 [1]: +++ (+++: reaction-inhibiting activity = 70%)
- reaction-inhibiting activity, Patient serum sample No. 8 [1]: +++ (+++: reaction-inhibiting activity = 70%)

Substance: A E G A L R Q S D G Q Y Q M (AEGALRQSDGQYQM) [CDP3-4]
- reaction-inhibiting activity, Patient serum sample No. 2 [1]: +++ (+++: reaction-inhibiting activity = 70%)
- reaction-inhibiting activity, Patient serum sample No. 7 [1]: +++ (+++: reaction-inhibiting activity = 70%)
- reaction-inhibiting activity, Patient serum sample No. 8 [1]: +++ (+++: reaction-inhibiting activity = 70%)

Substance: A E G E A R Q S D G Q Y Q M (AEGEARQSDGQYQM) [CDP3-5]
- reaction-inhibiting activity, Patient serum sample No. 2 [1]: +++ (+++: reaction-inhibiting activity = 70%)
- reaction-inhibiting activity, Patient serum sample No. 7 [1]: +++ (+++: reaction-inhibiting activity = 70%)
- reaction-inhibiting activity, Patient serum sample No. 8 [1]: +++ (+++: reaction-inhibiting activity = 70%)

Substance: A E G E L A Q S D G Q Y Q M (AEGELAQSDGQYQM) [CDP3-6]
- reaction-inhibiting activity, Patient serum sample No. 2 [1]: +++ (+++: reaction-inhibiting activity = 70%)
- reaction-inhibiting activity, Patient serum sample No. 7 [1]: +++ (+++: reaction-inhibiting activity = 70%)
- reaction-inhibiting activity, Patient serum sample No. 8 [1]: +++ (+++: reaction-inhibiting activity = 70%)

Substance: A E G E L R A S D G Q Y Q M (AEGELRASDGQYQM) [CDP3-7]
- reaction-inhibiting activity, Patient serum sample No. 2 [1]: − (−: reaction-inhibiting activity = 30%)
- reaction-inhibiting activity, Patient serum sample No. 7 [1]: − (−: reaction-inhibiting activity = 30%)
- reaction-inhibiting activity, Patient serum sample No. 8 [1]: − (−: reaction-inhibiting activity = 30%)

Substance: A E G E L R Q A D G Q Y Q M (AEGELRQADGQYQM) [CDP3-8]
- reaction-inhibiting activity, Patient serum sample No. 2 [1]: +++ (+++: reaction-inhibiting activity = 70%)
- reaction-inhibiting activity, Patient serum sample No. 7 [1]: +++ (+++: reaction-inhibiting activity = 70%)
- reaction-inhibiting activity, Patient serum sample No. 8 [1]: +++ (+++: reaction-inhibiting activity = 70%)

Substance: A E G E L R Q S A G Q Y Q M (AEGELRQSAGQYQM) [CDP3-9]
- reaction-inhibiting activity, Patient serum sample No. 2 [1]: − (−: reaction-inhibiting activity = 30%)
- reaction-inhibiting activity, Patient serum sample No. 7 [1]: + (+: reaction-inhibiting activity between 30% and 50%)
- reaction-inhibiting activity, Patient serum sample No. 8 [1]: − (−: reaction-inhibiting activity = 30%)

Substance: A E G E L R Q S D A Q Y Q M (AEGELRQSDAQYQM) [CDP3-10]
- reaction-inhibiting activity, Patient serum sample No. 2 [1]: + (+: reaction-inhibiting activity between 30% and 50%)
- reaction-inhibiting activity, Patient serum sample No. 7 [1]: +++ (+++: reaction-inhibiting activity = 70%)
- reaction-inhibiting activity, Patient serum sample No. 8 [1]: +++ (+++: reaction-inhibiting activity = 70%)

Substance: A E G E L R Q S D G A Y Q M (AEGELRQSDGAYQM) [CDP3-11]
- reaction-inhibiting activity, Patient serum sample No. 2 [1]: − (−: reaction-inhibiting activity = 30%)
- reaction-inhibiting activity, Patient serum sample No. 7 [1]: + (+: reaction-inhibiting activity between 30% and 50%)
- reaction-inhibiting activity, Patient serum sample No. 8 [1]: − (−: reaction-inhibiting activity = 30%)

Substance: A E G E L R Q S D G Q A Q M (AEGELRQSDGQAQM) [CDP3-12]
- reaction-inhibiting activity, Patient serum sample No. 2 [1]: +++ (+++: reaction-inhibiting activity = 70%)
- reaction-inhibiting activity, Patient serum sample No. 7 [1]: +++ (+++: reaction-inhibiting activity = 70%)
- reaction-inhibiting activity, Patient serum sample No. 8 [1]: +++ (+++: reaction-inhibiting activity = 70%)

Substance: A E G E L R Q S D G Q Y A M (AEGELRQSDGQYAM) [CDP3-13]
- reaction-inhibiting activity, Patient serum sample No. 2 [1]: + (+: reaction-inhibiting activity between 30% and 50%)
- reaction-inhibiting activity, Patient serum sample No. 7 [1]: +++ (+++: reaction-inhibiting activity = 70%)
- reaction-inhibiting activity, Patient serum sample No. 8 [1]: ++ (++: reaction-inhibiting activity between 50% and 70%)

Substance: A E G E L R Q S D G Q Y Q A (AEGELRQSDGQYQA) [CDP3-14]
- reaction-inhibiting activity, Patient serum sample No. 2 [1]: +++ (+++: reaction-inhibiting activity = 70%)
- reaction-inhibiting activity, Patient serum sample No. 7 [1]: +++ (+++: reaction-inhibiting activity = 70%)
- reaction-inhibiting activity, Patient serum sample No. 8 [1]: +++ (+++: reaction-inhibiting activity = 70%)

Substance: AEGEL GLLAQQMDY ADPA [CD-1]
- specificity to Crohn's disease patient serum (phage ELISA reactivity) [2]: high specificity to Crohn's disease patient serum

Substance: AEGEL RLVGQQVMQ GDPA [CD-5]
- specificity to Crohn's disease patient serum (phage ELISA reactivity) [2]: high specificity to Crohn's disease patient serum

Substance: AEGELGGIYQDLVSGDPA [CDP-4]
- Positive rate Ulcerative colitis patients [3]: 5% (1/20)
- reaction with ulcerative colitis patient sera or healthy volunteer sera [3]: did not appreciably react
- Positive rate Healthy volunteers [3]: 4.2% (2/48)

Substance: AEGELGLLAQQMDYADPA [CDP-1]
- Positive rate Ulcerative colitis patients [3]: 0% (0/20)
- reaction with ulcerative colitis patient sera or healthy volunteer sera [3]: did not appreciably react
- Positive rate Healthy volunteers [3]: 4.2% (2/48)

Substance: AEGELRQSDGQYQMGDPA [CDP-3]
- Positive rate Ulcerative colitis patients [3]: 0% (0/20)
- reaction with ulcerative colitis patient sera or healthy volunteer sera [3]: did not appreciably react
- Positive rate Healthy volunteers [3]: 0% (0/48)

Substance: AEGELYRWLPPSSAGDPA [CDP-2]
- Positive rate Ulcerative colitis patients [3]: 5% (1/20)
- reaction with ulcerative colitis patient sera or healthy volunteer sera [3]: did not appreciably react
- Positive rate Healthy volunteers [3]: 2.1% (1/48)

Substance: S E G E L R Q S D G Q Y Q M (SEGELRQSDGQYQM) [CPP3-1]
- reaction-inhibiting activity, Patient serum sample No. 2 [1]: +++ (+++: reaction-inhibiting activity = 70%)
- reaction-inhibiting activity, Patient serum sample No. 7 [1]: +++ (+++: reaction-inhibiting activity = 70%)
- reaction-inhibiting activity, Patient serum sample No. 8 [1]: +++ (+++: reaction-inhibiting activity = 70%)
